This is an account of results in article PMC3968004, “The Relevance of Testing the Efficacy of Anti-Angiogenesis Treatments on Cells Derived from Primary Tumors: A New Method for the Personalized Treatment of Renal Cell Carcinoma” (PLoS ONE, 2014).

One assay relates to TF cells. Briefly: MTT cell proliferation assay, TF cells (first TFE3 RCC patient). Format: cell-based, human. Particulars: for IC50 compared with 786-O cells: 48 hours of treatment; for In vitro sensitivity of the cells to the drug: sensitive if IC50 lower than or equal to that in 786-O cells. Here is the method:
Tumor fragments were treated with collagenase overnight at 37°C and/or mechanically disaggregated with scalpels. […] However, we were able to obtain cells from the adjacent invaded tissues (kidney vein, adrenal gland and lymph nodes). Tumor cells (TF, cells from the first TFE3 patient, M cells from invaded tissue of the second TFE3 patient, CC cells from the ccRCC patient) were suspended in cell culture medium specific for renal cells (PromoCell, Heidelberg Germany). The FISH, immunohistochemical and Western blot analyses of the initial tumor and cultured tumor cells, even after many passages, confirmed the presence of a TFE3-NONO fusion and over-expression of the fusion protein (Fig. 1A, 1B, 1C). The 786-O cells were from the American Type Culture Collection (ATCC) and cultured in the same defined medium.
To establish a correlation between the therapeutic response observed in the patients and response of the cells derived from the tumors, we performed in vitro proliferation assays in the presence of increasing concentrations of the different drugs used to treat the patients (from 0.1 µM to 100 µM). We used 786-O cells as a reference since their proliferation is inhibited by sunitinib [22]–[23], sorafenib [24]–[25] and mTOR inhibitor [26]. We considered the cells to be sensitive to a particular drug if the concentration giving 50% inhibition of cell proliferation (IC50) was lower than or equal to the IC50 in 786-O cells and considered to be resistant if the IC50 was higher than in 786-O cells. The IC50 of 786-O cells for sunitinib, everolimus and sorafenib were respectively 6±1, 10±1 and 6±1 µM. Following 48 hours of treatment the IC50 for sunitinib was equivalent for 786-O, CC and M cells and higher for TF cells (Fig. 2).
Figure 2 In vitro sensitivity of the TF, CC and M cells to targeted therapies. The IC50 of the different drugs was determined using the MTT test with concentrations of the drugs ranging from 0.1 µM to 100 µM in 786-O (786), TF, CC and M cells. The means SEMs and p-values (Student t test), in comparison with the IC50 for 786-O cells, the reference value, are shown. *p<0.05; **p<0.01 (Student t test). TEXT PRINTED IN THE PICTURE: Sunitinib: Response (786): +; Response (CC): +; Response (TF): -; Response (M): + | Everolimus: Response (786): +; Response (CC): -; Response (TF): +; Response (M): + | Sorafenib: Response (786): +; Response (CC): -; Response (TF): +; Response (M): + DOUBTS OF THE COPYIST ABOUT THIS PICTURE: No IC50 numbers are printed in the picture; they appear only as bars and were not read off. Only the printed Response classes (+/-) are copied.
Figure 4 In vitro sensitivity of cells isolated from different patients with ccRCC to targeted therapies. Cells were isolated from ccRCC of different Fuhrman grades (two grade 2 tumors (a, b), one grade 3 and two grade 4 (a, b). The IC50 of the different drugs was determined using the MTT test with concentrations of the drugs raning from 0.1 µM to 100 µM and the results were compared with the IC50 in 786-O (786) and TF cells. The expected response of the patients to the different drugs is indicated (− non-responder, + responder). The means, SEMs and p values (Student t test), in comparison with the IC50 for 786-O cells, the reference value, are shown. *p<0.05; **p<0.01; ***p<0.0001. TEXT PRINTED IN THE PICTURE: Sunitinib: Response (786): +; Response (2 a): +; Response (2 b): -; Response (3): +; Response (4 a): -; Response (4 b): +; Response (TF): - | Everolimus: Response (786): +; Response (2 a): +; Response (2 b): -; Response (3): +; Response (4 a): -; Response (4 b): +; Response (TF): + | Sorafenib: Response (786): +; Response (2 a): +; Response (2 b): -; Response (3): +; Response (4 a): -; Response (4 b): +; Response (TF): + DOUBTS OF THE COPYIST ABOUT THIS PICTURE: The IC50 values appear only as bars with no printed numbers, so none are given. […]

Assay [1] concerns subcutaneous xenografts of TFE3 RCC cells. The assay can be described thus: Tumor xenografts of TF cells in nude mice. Format: in vivo, nude (nu/nu) female mice. Conditions: TF cell xenografts; for percentage of mice with decrease (D) of the tumor size / percentage of mice with progression (P) of the tumor size / percentage of mice with stabilization (S) of the tumor size: daily gavage for fifteen days, sunitinib 40 mg/kg or sorafenib 80 mg/kg; for percentage of mice with stabilization (S) of the tumor size: stable = change not exceeding 1.5-fold; for percentage of tumor that does not progress: stable plus decreased tumors. Here is the method:
This study was carried out in strict accordance with the recommendations in the Guide for the Care and Use of Laboratory Animals of Centre National de la Recherche Scientifique (CNRS). All efforts were made to minimize suffering. Our experiments were approved by the “Comité national institutionnel d'éthique pour l'animal de laboratoire (CIEPAL)”. The project is registered under the reference: NCE/2013-97. The mice were housed under strict pathogen-free conditions and given sterile food and water. Animals were housed 5 per cage. 10^7 cells were injected subcutaneously into the flank of 5-week-old nude (nu/nu) female mice (Janvier, France) under sodium pentobarbital anesthesia. The tumor volume was determined by using a caliper (v = L×l^2×0.52 [18]). When the tumor reached 100 mm3, mice were treated by daily gavage for fifteen days with placebo (dextrose-water vehicle), sunitinib (40 mg/kg) or sorafenib (80 mg/kg). The ratio between the size of the tumor before and at the end of treatment for each tumor was measured.
The capacity of the drugs to reduce or stabilize tumor growth was tested on subcutaneous xenografts of TFE3 RCC cells in nude mice. The tumor growth was rather long (three months), a result compatible with previous results obtained on direct grafting of tumor fragments of RCC in mice. […] Without any treatment tumors progressed (40%) or remained stable (40%) (Fig. 5A). […] In the presence of sorafenib, the growth of most of the tumors was stable (45%). […] Another striking observation was the presence of a majority of cells with clear cytoplasm on HES staining for stable tumors or tumors that regressed during treatment (Fig. 5B). This cytological feature was the same in the initial tumor.
Figure 5 In vivo sensitivity of the TF cells to the different drugs used to treat the patient. A) 10^7 cells were subcutaneously injected into nude mice. When the tumor was visible mice were treated with sunitinib or sorafenib for 15 days. Tumor size was evaluated with a caliper. The percentage of mice with progression (P), decrease (D) or stabilization (S) of the tumor size is indicated. B) The general histological aspect of a progressing tumor (P) or a regressing (D) tumor is shown for the different situations (Control, sunitinib, sorafenib). The percentage of clear zones in stable or responsive tumors was evaluated using the Leica software SlidePath Gateway. Statistical analysis was performed using a student's t test (* p<0.05). TEXT PRINTED IN THE PICTURE: (A) Sunitinib: P: 33 %; S: 17 %; D: 50 % | (A) Sorafenib: P: 22 %; S: 45 %; D: 33 %

For `CO[C@H]1C[C@@H]2CC[C@@H](C)[C@@](O)(O2)C(=O)C(=O)N2CCCC[C@H]2C(=O)O[C@H]([C@H](C)C[C@@H]2CC[C@@H](OCCO)[C@H](OC)C2)CC(=O)[C@H](C)/C=C(\C)[C@@H](O)[C@@H](OC)C(=O)[C@H](C)C[C@H](C)/C=C/C=C/C=C/1C` [everolimus], in the assay with TF cells, the “IC50 compared with 786-O cells” value was “lower” and the “In vitro sensitivity of the cells to the drug” value (“In vitro sensitivity” for short) is recorded as “sensitive”.

Consider `CNC(=O)c1cc(Oc2ccc(NC(=O)Nc3ccc(Cl)c(C(F)(F)F)c3)cc2)ccn1` [sorafenib], for which, in the assay with TF cells, the “IC50 compared with 786-O cells” value is “equivalent” and the “In vitro sensitivity” value is listed as “sensitive”. Further, the “number of clear zones in tumors (HES staining)” value in assay [1] (compared with control) is “significant increase”. Also, in assay [1], the “percentage of mice with decrease (D) of the tumor size” value stood at 33%, the “percentage of mice with progression (P) of the tumor size” value is recorded as 22%, the “percentage of mice with stabilization (S) of the tumor size” value amounted to 45% and the “percentage of tumor that does not progress” value worked out at 78%.

With `CCN(CC)CCNC(=O)c1c(C)[nH]c(/C=C2\C(=O)Nc3ccc(F)cc32)c1C` [sunitinib], in the assay on TF cells, the “IC50 compared with 786-O cells” value is reported as “higher” and the “In vitro sensitivity” value was “resistant”. Further, in assay [1], the “percentage of mice with decrease (D) of the tumor size” value is 50%, the “percentage of mice with progression (P) of the tumor size” value was 33%, the “percentage of mice with stabilization (S) of the tumor size” value was determined as 17% and the “percentage of tumor that does not progress” value is listed as 67%.
